Broadly, the EC50 is the concentration at which the effect is half-maximal.

Where two headings read alike, the source gives them in different places.

This assay has as its target T1, human RXFP1 (Homo sapiens, UniProt Q9HBX9).
T1 construct: expressed in transfected cells
T1 sequence (Q9HBX9 1-757): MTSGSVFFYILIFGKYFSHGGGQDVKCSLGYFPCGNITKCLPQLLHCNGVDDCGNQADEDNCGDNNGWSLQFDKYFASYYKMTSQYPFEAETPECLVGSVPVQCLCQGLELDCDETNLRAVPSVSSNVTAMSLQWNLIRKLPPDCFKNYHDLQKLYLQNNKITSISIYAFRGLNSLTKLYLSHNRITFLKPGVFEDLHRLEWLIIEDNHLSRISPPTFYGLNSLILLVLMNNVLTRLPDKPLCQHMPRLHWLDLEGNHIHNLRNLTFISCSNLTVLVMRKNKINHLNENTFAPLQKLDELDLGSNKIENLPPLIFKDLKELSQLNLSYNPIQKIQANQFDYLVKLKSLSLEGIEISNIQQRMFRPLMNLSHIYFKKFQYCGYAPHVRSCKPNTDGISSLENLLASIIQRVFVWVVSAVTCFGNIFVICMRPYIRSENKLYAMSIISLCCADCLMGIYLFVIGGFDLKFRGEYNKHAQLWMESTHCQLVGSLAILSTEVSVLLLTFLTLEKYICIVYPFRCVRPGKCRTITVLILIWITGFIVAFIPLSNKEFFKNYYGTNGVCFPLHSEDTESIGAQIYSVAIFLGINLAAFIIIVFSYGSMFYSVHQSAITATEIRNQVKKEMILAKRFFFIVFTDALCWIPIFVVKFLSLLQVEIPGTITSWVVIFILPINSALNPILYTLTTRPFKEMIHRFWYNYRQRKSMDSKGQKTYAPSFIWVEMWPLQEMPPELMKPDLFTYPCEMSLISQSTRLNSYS
As to the kind of experiment: RXFP1 cAMP assay (hRXFP1 HEK293 cAMP assay, HTRF). The class given is cell-based. In a few lines:
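In a stable human RXFP1 HEK293 line, compounds acted for 30 min at RT in buffer with 0.5 mM IBMX. HTRF then quantified cellular cAMP.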
In general terms: cAMP levels reflect the balance of adenylyl cyclase and phosphodiesterase activity.

The mark [1] stands for this setting: HEK293 cells stably expressing human RXFP1, 30 min at room temperature, read-out: cAMP hRXFP1 HEK293 Assay EC50.

`COc1ccc(-c2ccc(C(=O)NCCN3CCOCC3)cc2F)cc1C(=O)N[C@@H]1C2CCC(/C2=C/c2ccccc2)[C@@H]1C(=O)Nc1ccc(F)c(C(F)(F)F)c1` (some centres unmarked) [compound 198]: under setting [1], the EC50 is 76 nM. Still for that read-out and setting: in the case of `COc1ccc(C2=NOC3COCC23)cc1C(=O)N[C@H]1[C@@H](C(=O)NCC(C)(C)OC)[C@H]2CC[C@@H]1/C2=C\C1CC1` (some centres unmarked) [compound 564] it was 47.3 nM; in that of `COc1ccc(C2=NOC3CC(NC(=O)CO)CC23)cc1C(=O)N[C@@H]1C2CCC(/C2=C/C2CC2)[C@@H]1C(=O)Nc1ccc(F)c(C(F)(F)F)c1` (some centres unmarked) [compound 743], 5 nM; in that of `COc1ccc(C2=NOC3COCC23)cc1C(=O)N[C@H]1[C@@H](C(=O)NCc2ccccc2OC(F)F)[C@H]2CC[C@@H]1/C2=C\C1CC1` (some centres unmarked) [compound 624], 169 nM. The same measure, in the same setting: in the case of `COc1ccc(C2=NOC3CC(CO)CC23)cc1C(=O)N[C@H]1[C@@H](C(=O)Nc2ccc(F)c(C(F)(F)F)c2)[C@H]2CC[C@@H]1/C2=C\C1CC1` (stereo partly drawn) [Example 429, (1R,2S,3R,4R,Z)-7-(cyclopropylmethylene)-N-(4-fluoro-3-(trifluoromethyl)phenyl)-3-(5-(5-(hydroxymethyl)-3a,5,6,6a-tetrahydro-4H-cyclopenta[d]isoxazol-3-yl)-2-methoxybenzamido)bicyclo[2.2.1]heptane-2-carboxamide] it was 2 nM. In turn, `COc1cc(F)c(F)cc1C(=O)N[C@@H]1C2CCC(/C2=C2\C=Cc3ccccc32)[C@@H]1C(=O)Nc1ccc(F)c(C(F)(F)F)c1` (some centres unmarked) [Example 33] yielded a 50% effective concentration (EC50) (cAMP hRXFP1 HEK293 Assay EC50, HEK293 cells stably expressing human RXFP1, 30 min at room temperature) of 310 nM. In the case of `COc1c(F)cc(C2=NO[C@@H]3C[C@H](CO)CN23)cc1C(=O)N[C@H]1[C@@H](C(=O)Nc2ccc(F)c(C(F)(F)F)c2)[C@H]2CC[C@@H]1/C2=C\C1CC1` [compound 852], the EC50 under setting [1] was determined as 3.1 nM. Still for that read-out and setting: in the case of `CCCC/C=C1\C2CCC1[C@H](C(=O)Nc1ccc(F)c(C(F)(F)F)c1)[C@@H]2NC(=O)c1cc(C2=NOC(CC(=O)O)C2)ccc1OC` (some centres unmarked) [compound 395] it was 104 nM. The same measure, in the same setting: as for `COc1ccc(-c2cc(C(=O)N3CC[C@H](O)C3)on2)cc1C(=O)N[C@H]1[C@@H](C(=O)Nc2ccc(F)c(C(F)(F)F)c2)[C@H]2CC[C@@H]1/C2=C\C1CC1` [compound 640], the figure is 214 nM; as for `COc1c(F)cc(C2=NOC3CC(CO)CC23)cc1C(=O)N[C@H]1[C@@H](C(=O)Nc2ccc(F)c(C(F)(F)F)c2)[C@H]2CC[C@@H]1/C2=C\CC(C)C` (some centres unmarked) [compound 796], 3.7 nM; as for `COCCN1CCCC1c1ccc(OC)c(C(=O)N[C@@H]2C3CCC(C3=CC3CC3)[C@@H]2C(=O)Nc2ccc(F)c(C(F)(F)F)c2)c1` (some centres unmarked) [compound 689], 684 nM. On the same count and under the same terms, in the case of `COc1ccc(-c2cc(C(O)C(=O)O)ccc2F)cc1C(=O)N[C@H]1[C@@H](C(=O)Nc2ccc(F)c(C(F)(F)F)c2)[C@H]2CC[C@@H]1/C2=C\CC1CC(F)(F)C1` (stereo partly drawn) [Example 352, 2-(3′-(((1R,2R,3S,4R,Z)-7-(2-(3,3-difluorocyclobutyl)ethylidene)-3-((4-fluoro-3-(trifluoromethyl)phenyl)carbamoyl)bicyclo[2.2.1]heptan-2-yl)carbamoyl)-6-fluoro-4′-methoxy-[1,1′-biphenyl]-3-yl)-2-hydroxyacetic acid] it was 64 nM; in that of `COc1ccc(C2=NOC3COCC23)cc1C(=O)N[C@H]1[C@@H](C(=O)NC2(C#N)CCCC2)[C@H]2CC[C@@H]1/C2=C\C1CC1` (some centres unmarked) [compound 476], 6.1 nM; in that of `COc1ccc(C2CCCN(C(=O)C(=O)O)C2)cc1C(=O)NC1C2CCC(/C2=C/C(F)(F)F)C1C(=O)Nc1ccc(F)c(C(F)(F)F)c1` (centres unmarked) [compound 368], 639 nM.

On to `COc1c(F)cc(C2=NOC3CC(C(C)O)CC23)cc1C(=O)N[C@H]1[C@@H](C(=O)Nc2ccc(F)c(C(F)(F)F)c2)[C@H]2CC[C@@H]1/C2=C\C1CC1` (some centres unmarked) [compound 850], for which the EC50 under setting [1] is 2.7 nM. Turning to `COc1ccc(-c2cc([C@H](O)C(F)(F)F)ccc2F)cc1C(=O)N[C@H]1[C@@H](C(=O)Nc2ccc(F)c(C(F)(F)F)c2)[C@H]2CC[C@@H]1/C2=C\C1CCC1` [compound 921], the EC50 under setting [1] was 8.2 nM.

For the molecule `COc1cc(F)c(F)cc1C(=O)N[C@@H]1C2CCC(/C2=C/c2cccc(CN3CCOCC3)c2)[C@@H]1C(=O)Nc1ccc(F)c(C(F)(F)F)c1` (some centres unmarked) [compound 70], the EC50 under setting [1] is 2900 nM. Same read-out and setting: in the case of `COc1ccc(-c2cc([C@H](OC(=O)NC3CCC3)C(F)(F)F)ccc2F)cc1C(=O)N[C@H]1[C@@H](C(=O)N[C@H](C)C2(C)CC2)[C@H]2CC[C@@H]1/C2=C\C1CC(F)(F)C1` [compound 967] it was 2.1 nM; in that of `COc1ccc(C2=NOC3CC(C(C)(C)O)CC23)cc1C(=O)N[C@H]1[C@@H](C(=O)Nc2ccc(F)c(C(F)(F)F)c2)[C@H]2CC[C@@H]1/C2=C\C1CC1` (single isomer, unassigned) [compound 579], 71.6 nM. On the same count and under the same terms, in the case of `COc1ccc(C2=NOC(CC(C)(C)O)C2)cc1C(=O)N[C@H]1[C@@H](C(=O)NCC(C)(C)C)[C@H]2CC[C@@H]1/C2=C\C1CC1` (some centres unmarked) [compound 660] it was 350 nM; in that of `COc1c(F)cc(C2=NOC(C)(CO)C2)cc1C(=O)N[C@H]1[C@@H](C(=O)N[C@H](C)C2(C)CC2)[C@H]2CC[C@@H]1/C2=C\C1CC1` (some centres unmarked) [compound 744], 2.5 nM; in that of `COC(=O)c1cccc(-c2ccc(OC)c(C(=O)N[C@H]3[C@@H](C(=O)Nc4ccc(F)c(C(F)(F)F)c4)[C@H]4CC[C@@H]3C4=C(C)C)c2)c1` [compound 86], 150 nM. Same read-out and setting: as for `COc1ccc(-c2cc(C(=O)Nc3nnn[nH]3)ccc2F)cc1C(=O)N[C@@H]1C2CCC(/C2=C/c2cnoc2)[C@@H]1C(=O)Nc1ccc(F)c(C(F)(F)F)c1` (some centres unmarked) [Example 192], the figure is 135 nM.

With `COc1ccc(-c2cc(C3=NOC4CC(O)CC34)ccc2F)cc1C(=O)N[C@H]1[C@@H](C(=O)Nc2ccc(F)c(C(F)(F)F)c2)[C@H]2CC[C@@H]1/C2=C\C1CC1` (some centres unmarked) [compound 909], the EC50 under setting [1] was 4 nM.

Take `COc1ccc(-c2cc(C(OC(C)=O)C(=O)O)ccc2F)cc1C(=O)N[C@@H]1C2CCC(/C2=C/c2cnoc2)[C@@H]1C(=O)Nc1ccc(F)c(C(F)(F)F)c1` (some centres unmarked) [Example 178]: the EC50 under setting [1] was 11 nM. Take `COc1ccc(-c2cc(CC(=O)O)ccc2F)cc1C(=O)N[C@@H]1C2CCC(C2=C(C)C)[C@@H]1C(=O)Nc1ccc(F)c(C(F)(F)F)c1` (some centres unmarked) [compound 155]: the EC50 under setting [1] came out at 87 nM. Same read-out and setting: as for `COc1ccc(C2=NOC3COCC23)cc1C(=O)N[C@H]1[C@@H](C(=O)NC23CC(C#N)(C2)C3)[C@H]2CC[C@@H]1/C2=C\C1CC1` (some centres unmarked) [compound 777], the figure is 13.9 nM. Regarding `COc1ccc(-c2cc(C(=O)N3CC[C@@H](O)C3)on2)cc1C(=O)N[C@H]1[C@@H](C(=O)Nc2ccc(F)c(C(F)(F)F)c2)[C@H]2CC[C@@H]1/C2=C\C1CC1` [compound 617], the EC50 under setting [1] came out at 153 nM. The same measure, in the same setting: as for `COc1ccc(-c2cc(C(=O)O)ccc2F)cc1C(=O)N[C@@H]1C2CCC(/C2=C/C2CC2)[C@@H]1C(=O)NC1CCCCC1` (some centres unmarked) [compound 203], the figure is 322 nM; as for `COc1c(F)cc(-c2ccc3c(c2)S(=O)(=O)N(C(C)(C)C)C3)cc1C(=O)N[C@H]1[C@@H](C(=O)N[C@H](C)C2(C)CC2)[C@H]2CC[C@@H]1/C2=C\C1CC1` [compound 916], 3.6 nM. Same read-out and setting: in the case of `COc1cc(C(=O)N[C@H]2[C@@H](C(=O)Nc3ccc(F)c(C(F)(F)F)c3)[C@H]3CC[C@@H]2/C3=C\C2CC2)cc(C2=NOC3COCC23)c1` (single isomer, unassigned) [compound 696] it was 966 nM.

For the molecule `COc1ccc(C2=NOC3COCC23)cc1C(=O)N[C@H]1[C@@H](C(=O)NCC2CCC2)[C@H]2CC[C@@H]1/C2=C\C1CC1` (some centres unmarked) [compound 597], the EC50 under setting [1] is 102 nM.

As for `COCCOCCOc1ccc(-c2cc(C(=O)O)ccc2F)cc1C(=O)N[C@@H]1C2CCC(/C2=C/c2ccccc2)[C@@H]1C(=O)Nc1ccc(F)c(C(F)(F)F)c1` (some centres unmarked) [Example 199], the half-maximal effective concentration (EC50) under setting [1] stood at 128 nM. Still for that read-out and setting: in the case of `COc1ccc(C2=NOC3CC(C#N)CC23)cc1C(=O)N[C@H]1[C@@H](C(=O)Nc2ccc(F)c(C(F)(F)F)c2)[C@H]2CC[C@@H]1/C2=C\C1CC1` (some centres unmarked) [compound 506] it was 12.7 nM; in that of `O=C(NC1CCC1)OC(c1ccc(F)c(-c2ccc(OCCO)c(C(=O)N[C@H]3[C@@H](C(=O)Nc4ccc(F)c(C(F)(F)F)c4)[C@H]4CC[C@@H]3/C4=C\C3CC3)c2)c1)C(F)(F)F` (stereo partly drawn) [Example 253, 1-(3′-(((1R,2R,3S,4R,Z)-7-(cyclopropylmethylene)-3-((4-fluoro-3-(trifluoromethyl)phenyl)carbamoyl)bicyclo[2.2.1]heptan-2-yl)carbamoyl)-6-fluoro-4′-(2-hydroxyethoxy)-[1,1′-biphenyl]-3-yl)-2,2,2-trifluoroethyl cyclobutylcarbamate], 17 nM.

The values are drawn from US20250221966A1, “RXFP1 AGONISTS” (BRISTOL-MYERS SQUIBB COMPANY, priority 2021, published 2025).
